# Data published in US7118895B2, “Process for producing aglycon by using diglycosidase and flavor-improved food containing the aglycon and converting agent to be used in the process” (Amano Enzyme Inc., priority 2000, dated 2006).
# System: Crude diglycosidase
# Test: Examination of temperature in the conversion into isoflavone aglycons by diglycosidase using soybean materials
# Format: biochemical, Penicillium multicolor IAM7153
# Design: Decomposition efficiency of glycitin family in roasted soy flour / Decomposition efficiency of daidzin family in roasted soy flour / Decomposition efficiency of genistin family in soymilk / Decomposition efficiency of daidzin family in soymilk / Decomposition efficiency of glycitin family in defatted soybean / Decomposition efficiency of daidzin family in defatted soybean: concentration or dose not given beside the values
# In short: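 Soybean materials (50 mg) suspended in 20 mM acetate buffer pH 4.0 reacted with crude diglycosidase diluted to 1.88 AU/mL at 80, 65, 55, 45, 37 or 30° C. Reactions stopped with ethanol at 0, 1, 3 and 6 h; isoflavone glycosides and aglycons in supernatant detected by HPLC.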
# [1] = 30 °C, heat treatment of enzyme: no, 0 h
# [2] = 30 °C, heat treatment of enzyme: no, 1 h
# [3] = 30 °C, heat treatment of enzyme: no, 3 h
# [4] = 30 °C, heat treatment of enzyme: no, 6 h
# [5] = 30 °C, heat treatment of enzyme: yes, 6 h
# [6] = 45 °C, heat treatment of enzyme: no, 0 h
# [7] = 45 °C, heat treatment of enzyme: no, 1 h
# [8] = 45 °C, heat treatment of enzyme: no, 3 h
# [9] = 45 °C, heat treatment of enzyme: no, 6 h
# [10] = 45 °C, heat treatment of enzyme: yes, 6 h
# [11] = 55 °C, heat treatment of enzyme: no, 0 h
# [12] = 55 °C, heat treatment of enzyme: no, 1 h
# [13] = 55 °C, heat treatment of enzyme: no, 3 h
# [14] = 55 °C, heat treatment of enzyme: no, 6 h
# [15] = 55 °C, heat treatment of enzyme: yes, 6 h
# [16] = 65 °C, heat treatment of enzyme: no, 0 h
# [17] = 65 °C, heat treatment of enzyme: no, 1 h
# [18] = 65 °C, heat treatment of enzyme: no, 3 h
# [19] = 65 °C, heat treatment of enzyme: no, 6 h
# [20] = 65 °C, heat treatment of enzyme: yes, 6 h
# [21] = 80 °C, heat treatment of enzyme: no, 0 h
# [22] = 80 °C, heat treatment of enzyme: no, 1 h
# [23] = 80 °C, heat treatment of enzyme: no, 3 h
# [24] = 80 °C, heat treatment of enzyme: no, 6 h
# [25] = 80 °C, heat treatment of enzyme: yes, 6 h
smiles,measurement,setting,value
COc1cc2c(=O)c(-c3ccc(O)cc3)coc2cc1O[C@@H]1O[C@H](CO)[C@@H](O)[C@H](O)[C@H]1O [glycitin],Decomposition efficiency of glycitin family in defatted soybean,"30° C., heat treatment of enzyme no, reaction time 0 h",not detected
same,Decomposition efficiency of glycitin family in defatted soybean,"30° C., heat treatment of enzyme no, reaction time 1 h",not detected
same,Decomposition efficiency of glycitin family in defatted soybean,"30° C., heat treatment of enzyme no, reaction time 3 h",not detected
same,Decomposition efficiency of glycitin family in defatted soybean,"30° C., heat treatment of enzyme no, reaction time 6 h",not detected
same,Decomposition efficiency of glycitin family in defatted soybean,"30° C., heat treatment of enzyme yes, reaction time 6 h",not detected
same,Decomposition efficiency of glycitin family in concentrated soybean protein,[1],52.2%
same,Decomposition efficiency of glycitin family in roasted soy flour,[1],50.9%
same,Decomposition efficiency of glycitin family in soymilk,[1],43.9%
same,Decomposition efficiency of glycitin family in concentrated soybean protein,[2],47.1%
same,Decomposition efficiency of glycitin family in roasted soy flour,[2],34.8%
same,Decomposition efficiency of glycitin family in soymilk,[2],not detected
same,Decomposition efficiency of glycitin family in concentrated soybean protein,[3],39.1%
same,Decomposition efficiency of glycitin family in roasted soy flour,[3],not detected
same,Decomposition efficiency of glycitin family in soymilk,[3],not detected
same,Decomposition efficiency of glycitin family in concentrated soybean protein,[4],28.4%
same,Decomposition efficiency of glycitin family in roasted soy flour,[4],not detected
same,Decomposition efficiency of glycitin family in soymilk,[4],not detected
same,Decomposition efficiency of glycitin family in concentrated soybean protein,[5],52.8%
same,Decomposition efficiency of glycitin family in roasted soy flour,[5],51.4%
same,Decomposition efficiency of glycitin family in soymilk,[5],44.5%
same,Decomposition efficiency of glycitin family in defatted soybean,"45° C., heat treatment of enzyme no, reaction time 0 h",not detected
same,Decomposition efficiency of glycitin family in defatted soybean,"45° C., heat treatment of enzyme no, reaction time 1 h",not detected
same,Decomposition efficiency of glycitin family in defatted soybean,"45° C., heat treatment of enzyme no, reaction time 3 h",not detected
same,Decomposition efficiency of glycitin family in defatted soybean,"45° C., heat treatment of enzyme no, reaction time 6 h",not detected
same,Decomposition efficiency of glycitin family in defatted soybean,"45° C., heat treatment of enzyme yes, reaction time 6 h",not detected
same,Decomposition efficiency of glycitin family in concentrated soybean protein,[6],52.3%
same,Decomposition efficiency of glycitin family in roasted soy flour,[6],51.3%
same,Decomposition efficiency of glycitin family in soymilk,[6],42.6%
same,Decomposition efficiency of glycitin family in concentrated soybean protein,[7],30.2%
same,Decomposition efficiency of glycitin family in roasted soy flour,[7],12.4%
same,Decomposition efficiency of glycitin family in soymilk,[7],not detected
same,Decomposition efficiency of glycitin family in concentrated soybean protein,[8],18.8%
same,Decomposition efficiency of glycitin family in roasted soy flour,[8],12.4%
same,Decomposition efficiency of glycitin family in soymilk,[8],not detected
same,Decomposition efficiency of glycitin family in concentrated soybean protein,[9],7.5%
same,Decomposition efficiency of glycitin family in roasted soy flour,[9],5.9%
same,Decomposition efficiency of glycitin family in soymilk,[9],not detected
same,Decomposition efficiency of glycitin family in concentrated soybean protein,[10],53.2%
same,Decomposition efficiency of glycitin family in roasted soy flour,[10],49.8%
same,Decomposition efficiency of glycitin family in soymilk,[10],45.4%
same,Decomposition efficiency of glycitin family in defatted soybean,"55° C., heat treatment of enzyme no, reaction time 0 h",not detected
same,Decomposition efficiency of glycitin family in defatted soybean,"55° C., heat treatment of enzyme no, reaction time 1 h",not detected
same,Decomposition efficiency of glycitin family in defatted soybean,"55° C., heat treatment of enzyme no, reaction time 3 h",not detected
same,Decomposition efficiency of glycitin family in defatted soybean,"55° C., heat treatment of enzyme no, reaction time 6 h",not detected
same,Decomposition efficiency of glycitin family in defatted soybean,"55° C., heat treatment of enzyme yes, reaction time 6 h",not detected
same,Decomposition efficiency of glycitin family in concentrated soybean protein,[11],52.3%
same,Decomposition efficiency of glycitin family in roasted soy flour,[11],50.5%
same,Decomposition efficiency of glycitin family in soymilk,[11],47.8%
same,Decomposition efficiency of glycitin family in concentrated soybean protein,[12],14.2%
same,Decomposition efficiency of glycitin family in roasted soy flour,[12],not detected
same,Decomposition efficiency of glycitin family in soymilk,[12],not detected
same,Decomposition efficiency of glycitin family in concentrated soybean protein,[13],not detected
same,Decomposition efficiency of glycitin family in roasted soy flour,[13],not detected
same,Decomposition efficiency of glycitin family in soymilk,[13],not detected
same,Decomposition efficiency of glycitin family in concentrated soybean protein,[14],not detected
same,Decomposition efficiency of glycitin family in roasted soy flour,[14],not detected
same,Decomposition efficiency of glycitin family in soymilk,[14],not detected
same,Decomposition efficiency of glycitin family in concentrated soybean protein,[15],52.9%
same,Decomposition efficiency of glycitin family in roasted soy flour,[15],51.7%
same,Decomposition efficiency of glycitin family in soymilk,[15],53.5%
same,Decomposition efficiency of glycitin family in defatted soybean,"65° C., heat treatment of enzyme no, reaction time 0 h",not detected
same,Decomposition efficiency of glycitin family in defatted soybean,"65° C., heat treatment of enzyme no, reaction time 1 h",not detected
same,Decomposition efficiency of glycitin family in defatted soybean,"65° C., heat treatment of enzyme no, reaction time 3 h",not detected
same,Decomposition efficiency of glycitin family in defatted soybean,"65° C., heat treatment of enzyme no, reaction time 6 h",not detected
same,Decomposition efficiency of glycitin family in defatted soybean,"65° C., heat treatment of enzyme yes, reaction time 6 h",not detected
same,Decomposition efficiency of glycitin family in concentrated soybean protein,[16],52.2%
same,Decomposition efficiency of glycitin family in roasted soy flour,[16],50.9%
same,Decomposition efficiency of glycitin family in soymilk,[16],43.9%
same,Decomposition efficiency of glycitin family in concentrated soybean protein,[17],5.2%
same,Decomposition efficiency of glycitin family in roasted soy flour,[17],not detected
same,Decomposition efficiency of glycitin family in soymilk,[17],not detected
same,Decomposition efficiency of glycitin family in concentrated soybean protein,[18],not detected
same,Decomposition efficiency of glycitin family in roasted soy flour,[18],not detected
same,Decomposition efficiency of glycitin family in soymilk,[18],not detected
same,Decomposition efficiency of glycitin family in concentrated soybean protein,[19],not detected
same,Decomposition efficiency of glycitin family in roasted soy flour,[19],not detected
same,Decomposition efficiency of glycitin family in soymilk,[19],not detected
same,Decomposition efficiency of glycitin family in concentrated soybean protein,[20],52.5%
same,Decomposition efficiency of glycitin family in roasted soy flour,[20],50.3%
same,Decomposition efficiency of glycitin family in soymilk,[20],56.8%
same,Decomposition efficiency of glycitin family in defatted soybean,"80° C., heat treatment of enzyme no, reaction time 0 h",not detected
same,Decomposition efficiency of glycitin family in defatted soybean,"80° C., heat treatment of enzyme no, reaction time 1 h",not detected
same,Decomposition efficiency of glycitin family in defatted soybean,"80° C., heat treatment of enzyme no, reaction time 3 h",not detected
same,Decomposition efficiency of glycitin family in defatted soybean,"80° C., heat treatment of enzyme no, reaction time 6 h",not detected
same,Decomposition efficiency of glycitin family in defatted soybean,"80° C., heat treatment of enzyme yes, reaction time 6 h",not detected
same,Decomposition efficiency of glycitin family in concentrated soybean protein,[21],52.3%
same,Decomposition efficiency of glycitin family in roasted soy flour,[21],51.3%
same,Decomposition efficiency of glycitin family in soymilk,[21],42.6%
same,Decomposition efficiency of glycitin family in concentrated soybean protein,[22],39.7%
same,Decomposition efficiency of glycitin family in roasted soy flour,[22],19.2%
same,Decomposition efficiency of glycitin family in soymilk,[22],10.7%
same,Decomposition efficiency of glycitin family in concentrated soybean protein,[23],40.5%
same,Decomposition efficiency of glycitin family in roasted soy flour,[23],20.5%
same,Decomposition efficiency of glycitin family in soymilk,[23],22.5%
same,Decomposition efficiency of glycitin family in concentrated soybean protein,[24],41.7%
same,Decomposition efficiency of glycitin family in roasted soy flour,[24],33.6%
same,Decomposition efficiency of glycitin family in soymilk,[24],44.2%
same,Decomposition efficiency of glycitin family in concentrated soybean protein,[25],53.6%
same,Decomposition efficiency of glycitin family in roasted soy flour,[25],50.6%
same,Decomposition efficiency of glycitin family in soymilk,[25],71.4%
